Data taken from patent US20240383905A1, “FGFR INHIBITORS AND METHODS OF USE THEREOF” (3H PHARMACEUTICALS CO., LTD., priority 2021, published 2024).

Tests used:
FGFR2 = biological target: T1, FGFR2 (Homo sapiens, UniProt P21802); test: FGFR2 Biochemical Caliper Assay (KinEASE-TK kit); conditions: 0.07 nM FGFR2; compound incubated with protein 10 min, reaction 45 min at RT; read-out: FGFR2 Cliper IC50
T1 construct: purchased Carna 08-134

FGFR1 = biological target: T2, FGFR1 (Homo sapiens, UniProt P11362); test: FGFR1 Biochemical Caliper Assay (KinEASE-TK kit); conditions: ratio FGFR1/FGFR2 of the biochemical assay
T2 construct: purchased Carna 08-133
T2 sequence (P11362 22-822): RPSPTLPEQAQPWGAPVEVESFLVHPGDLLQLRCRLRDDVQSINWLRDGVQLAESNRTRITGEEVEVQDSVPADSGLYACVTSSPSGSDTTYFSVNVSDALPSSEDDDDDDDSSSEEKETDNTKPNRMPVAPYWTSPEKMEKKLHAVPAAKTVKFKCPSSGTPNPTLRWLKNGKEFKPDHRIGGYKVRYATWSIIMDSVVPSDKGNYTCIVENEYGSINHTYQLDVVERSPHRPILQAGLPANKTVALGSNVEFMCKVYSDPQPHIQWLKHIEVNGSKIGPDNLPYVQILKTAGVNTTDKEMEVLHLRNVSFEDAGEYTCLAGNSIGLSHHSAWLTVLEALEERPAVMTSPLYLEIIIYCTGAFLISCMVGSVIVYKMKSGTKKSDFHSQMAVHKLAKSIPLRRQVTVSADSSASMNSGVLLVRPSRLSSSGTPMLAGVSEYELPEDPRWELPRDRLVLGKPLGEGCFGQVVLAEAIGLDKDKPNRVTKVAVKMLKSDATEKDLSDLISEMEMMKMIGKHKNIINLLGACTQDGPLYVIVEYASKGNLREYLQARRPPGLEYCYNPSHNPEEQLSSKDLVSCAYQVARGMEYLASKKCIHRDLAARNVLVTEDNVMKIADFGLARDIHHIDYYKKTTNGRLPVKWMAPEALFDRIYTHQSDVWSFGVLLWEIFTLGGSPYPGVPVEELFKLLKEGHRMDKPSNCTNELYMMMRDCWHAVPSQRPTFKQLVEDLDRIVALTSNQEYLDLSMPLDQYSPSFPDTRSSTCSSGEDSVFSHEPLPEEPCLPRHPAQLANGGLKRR
Summary of the method: (§1)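 KinEASE-TK HTRF readout: enzyme at 0.2 nM (FGFR1, FGFR3) preincubated 10 min at RT with 10-point 3-fold compound dilutions before TK-substrate/ATP start.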

FGFR3 = biological target: T3, FGFR3 (Homo sapiens, UniProt P22607); test: FGFR3 Biochemical Caliper Assay (KinEASE-TK kit); conditions: ratio FGFR3/FGFR2 of the biochemical assay
T3 construct: purchased Carna 08-135
T3 sequence (P22607 23-806): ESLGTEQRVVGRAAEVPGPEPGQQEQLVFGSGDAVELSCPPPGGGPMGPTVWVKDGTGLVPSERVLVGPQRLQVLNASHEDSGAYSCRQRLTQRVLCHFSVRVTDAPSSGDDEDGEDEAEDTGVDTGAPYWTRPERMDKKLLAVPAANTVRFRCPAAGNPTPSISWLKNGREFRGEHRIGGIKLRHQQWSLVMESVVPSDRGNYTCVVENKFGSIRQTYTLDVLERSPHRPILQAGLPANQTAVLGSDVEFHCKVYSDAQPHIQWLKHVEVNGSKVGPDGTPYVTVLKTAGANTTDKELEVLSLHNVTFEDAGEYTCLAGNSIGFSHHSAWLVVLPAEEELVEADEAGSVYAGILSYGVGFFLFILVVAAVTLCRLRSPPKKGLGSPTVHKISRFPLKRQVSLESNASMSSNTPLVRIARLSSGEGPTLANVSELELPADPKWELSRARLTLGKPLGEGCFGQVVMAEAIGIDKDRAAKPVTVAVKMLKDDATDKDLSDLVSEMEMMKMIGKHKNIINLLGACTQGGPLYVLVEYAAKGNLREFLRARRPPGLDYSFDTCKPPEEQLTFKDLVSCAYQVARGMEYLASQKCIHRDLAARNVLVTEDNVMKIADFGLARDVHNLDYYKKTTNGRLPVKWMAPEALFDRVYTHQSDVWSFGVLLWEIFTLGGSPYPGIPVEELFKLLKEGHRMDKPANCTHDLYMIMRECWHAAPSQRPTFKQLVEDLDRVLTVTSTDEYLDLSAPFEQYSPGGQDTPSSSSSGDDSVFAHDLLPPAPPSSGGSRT
Summary of the method: as §1

SNU16 cells = test: SNU16 Cancer Cell Line Proliferation Assay (CellTiter-Glo); format: cell-based; conditions: Homo sapiens, SNU-16, 72 h
Summary of the method: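 Luminescent ATP read-out after 72 h at 37 °C gave IC50 values; compounds tested as 9 three-fold serial dilutions on 5000 SNU16 cells per well, with DMSO as control.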

T1 sequence (P21802 22-821): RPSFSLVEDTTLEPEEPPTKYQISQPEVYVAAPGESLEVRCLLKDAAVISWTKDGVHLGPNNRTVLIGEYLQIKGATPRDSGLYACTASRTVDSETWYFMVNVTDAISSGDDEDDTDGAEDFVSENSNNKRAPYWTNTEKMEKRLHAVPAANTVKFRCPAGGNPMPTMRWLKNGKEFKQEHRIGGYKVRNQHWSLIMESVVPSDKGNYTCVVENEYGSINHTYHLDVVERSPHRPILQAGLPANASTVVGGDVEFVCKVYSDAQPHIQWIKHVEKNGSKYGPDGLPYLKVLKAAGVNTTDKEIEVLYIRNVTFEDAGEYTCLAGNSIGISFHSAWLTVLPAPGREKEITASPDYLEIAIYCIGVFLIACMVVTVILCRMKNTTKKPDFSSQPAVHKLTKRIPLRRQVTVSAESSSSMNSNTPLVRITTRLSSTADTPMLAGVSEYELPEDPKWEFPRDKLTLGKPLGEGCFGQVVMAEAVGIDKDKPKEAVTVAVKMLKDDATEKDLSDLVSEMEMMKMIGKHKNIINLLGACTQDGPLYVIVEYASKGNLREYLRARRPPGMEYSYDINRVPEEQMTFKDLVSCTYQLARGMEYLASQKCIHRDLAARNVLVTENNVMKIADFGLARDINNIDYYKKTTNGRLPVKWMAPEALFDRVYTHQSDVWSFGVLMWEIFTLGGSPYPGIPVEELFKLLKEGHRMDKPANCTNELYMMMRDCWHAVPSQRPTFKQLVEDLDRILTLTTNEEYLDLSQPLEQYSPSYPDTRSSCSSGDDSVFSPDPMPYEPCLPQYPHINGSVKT

| IC50 (FGFR2) [nM] | IC50 (SNU16 cells) [nM] | SMILES | Selectivity FGFR1/FGFR2 (FGFR1) | Selectivity FGFR3/FGFR2 (FGFR3) |
| --- | --- | --- | --- | --- |
| < 5 | ≤ 10 | C=CC(=O)Nc1ccc(-c2c(-c3ccc(C(=O)NCC(F)F)c(OC)c3)c3c(N)ncc(C#N)c3n2C)cc1 [Compound 198, 4-(2-(4-acrylamidophenyl)-4-amino-7-cyano-1-methyl-1H-pyrrolo[3,2-c]pyridin-3-yl)-N-(2,2-difluoroethyl)-2-methoxybenzamide] | A (Selectivity of FGFR1/FGFR2 less than 500 but greater than or equal to 300) | A+ (Selectivity of FGFR3/FGFR2 greater or equal to 150) |
| < 5 | ≤ 10 | C=C(F)C(=O)Nc1ccc(-c2nn3ncnc(N)c3c2-c2ccc(C(=O)NC3CC3)c(OC)c2)c(Cl)c1 [Compound 199, 4-(4-amino-6-(2-chloro-4-(2-fluoroacrylamido)phe-nyl)pyrazolo[5,1-f][1,2,4]triazin-5-yl)-N-cyclopropyl-2-methoxybenzamide] | A+ (Selectivity of FGFR1/FGFR2 greater or equal to 500) | A+ (Selectivity of FGFR3/FGFR2 greater or equal to 150) |
| < 5 | ≤ 10 | C=C(F)C(=O)Nc1ccc(-c2nn3ncnc(N)c3c2-c2ccc(C(=O)NCC3(F)CC3)c(OC)c2)cc1 [Compound 204, 4-(4-amino-6-(4-(2-fluoroacrylamido)phe-nyl)pyrazolo[5,1-f][1,2,4]triazin-5-yl)-N-((1-fluorocyclopropyl)methyl)-2-methoxybenzamide] | A+ (Selectivity of FGFR1/FGFR2 greater or equal to 500) | A (Selectivity of FGFR3/FGFR2 less than 150 but greater than or equal to 100) |
| < 5 | ≤ 10 | C=CC(=O)Nc1ccc(-c2nn3ncnc(N)c3c2-c2ccc(Oc3nccc(C)n3)c(F)c2)cc1 [Compound 205, N-(4-(4-amino-5-(3-fluoro-4-((4-methylpyrimidin-2-yl)oxy)phenyl)pyrazolo [5,1-f][1,2,4]triazin-6-yl)phenyl)acrylamide] | A+ (Selectivity of FGFR1/FGFR2 greater or equal to 500) | B (Selectivity of FGFR3/FGFR2 less than 100 but greater than or equal to 25) |
| 5 to 10 | ≤ 10 | C=CC(=O)Nc1ccc(-c2nn3ncnc(N)c3c2-c2ccc(OC3CCCCC3)cc2)cc1 [Compound 228, N-(4-(4-amino-5-(4-(cyclohexyloxy)phenyl)pyrazolo[5,1-f][1,2,4]triazin-6-yl)phenyl)acrylamide] | A+ (Selectivity of FGFR1/FGFR2 greater or equal to 500) | A+ (Selectivity of FGFR3/FGFR2 greater or equal to 150) |
| < 5 | ≤ 10 | C=C(F)C(=O)Nc1ccc(-c2nn3ncnc(N)c3c2-c2ccc(C(=O)NC3CC(F)(F)C3)c(OC)c2)c(F)c1 [Compound 234] | A+ (Selectivity of FGFR1/FGFR2 greater or equal to 500) | A+ (Selectivity of FGFR3/FGFR2 greater or equal to 150) |
| < 5 | ≤ 10 | C=CC(=O)Nc1ccc(-c2c(-c3ccc(C(=O)NC4CC4)c(OC)c3)c3c(N)ncc(C#N)c3n2CCF)cc1 [Compound 236, 4-(2-(4-acrylamidophenyl)-4-amino-7-cyano-1-(2-fluoroethyl)-1H-pyrrolo[3,2-c]pyridin-3-yl)-N-cyclopropyl-2-methoxybenzamide] | A+ (Selectivity of FGFR1/FGFR2 greater or equal to 500) | A (Selectivity of FGFR3/FGFR2 less than 150 but greater than or equal to 100) |
| 5 to 10 | ≤ 10 | C=CC(=O)Nc1ccc(-c2c(-c3ccc(NC(=O)C4CC4)c(OC)c3)c3c(N)ncc(C#N)c3n2C)cc1 [Compound 237] | B (Selectivity of FGFR1/FGFR2 less than 300 but greater than or equal to 200) | A+ (Selectivity of FGFR3/FGFR2 greater or equal to 150) |
| < 5 | ≤ 10 | C=CC(=O)Nc1ccc(-c2[nH]c3c(C#N)cnc(N)c3c2-c2ccc(C(=O)NCC(F)(F)F)c(OC)c2)cc1 [Compound 248] | C (Selectivity of FGFR1/FGFR2 less than 200 but greater than or equal to 100) | A+ (Selectivity of FGFR3/FGFR2 greater or equal to 150) |
| < 5 | ≤ 10 | C=C(F)C(=O)Nc1ccc(-c2nn3ncnc(N)c3c2-c2ccc(C(=O)NC3CC(F)C3)c(OC)c2)c(F)c1 (centres unmarked) [Compound 249] | C (Selectivity of FGFR1/FGFR2 less than 200 but greater than or equal to 100) | A+ (Selectivity of FGFR3/FGFR2 greater or equal to 150) |
| < 5 | ≤ 10 | C=C(F)C(=O)Nc1ccc(-c2[nH]c3c(C#N)cnc(N)c3c2-c2ccc(C(=O)NC3CC3)c(OC)c2)c(F)c1 [Compound 267, 4-(4-amino-7-cyano-2-(2-fluoro-4-(2-fluoroacrylamido)phe-nyl)-1H-pyrrolo[3,2-c]pyridin-3-yl)-N-cyclopropyl-2-methoxybenzamide] | B (Selectivity of FGFR1/FGFR2 less than 300 but greater than or equal to 200) | A+ (Selectivity of FGFR3/FGFR2 greater or equal to 150) |
| < 5 | ≤ 10 | C=C(F)C(=O)Nc1ccc(-c2nn3ncnc(N)c3c2-c2ccc(C(=O)NC3CC3(F)F)c(OC)c2)c(F)c1 (centres unmarked) [Compound 271] | C (Selectivity of FGFR1/FGFR2 less than 200 but greater than or equal to 100) | B (Selectivity of FGFR3/FGFR2 less than 100 but greater than or equal to 25) |
| > 10 | ≤ 10 | C=C(F)C(=O)Nc1ccc(-c2nn3ncnc(N)c3c2-c2ccc(C(=O)NCC(F)F)c(OC)c2)c(F)c1 [Compound 289] | C (Selectivity of FGFR1/FGFR2 less than 200 but greater than or equal to 100) | B (Selectivity of FGFR3/FGFR2 less than 100 but greater than or equal to 25) |
| < 5 | ≤ 10 | C=CC(=O)Nc1ccc(-c2c(-c3ccc(C(=O)NCC(F)(F)F)c(OC)c3)c3c(N)ncc(C#N)c3n2CCOC)cc1 [Compound 318, 4-(2-(4-acrylamidophenyl)-4-amino-7-cyano-1-(2-methoxyethyl)-1H-pyrrolo[3,2-c]pyridin-3-yl)-2-methoxy-N-(2,2,2-trifluoroethyl)benzamide] | C (Selectivity of FGFR1/FGFR2 less than 200 but greater than or equal to 100) | A (Selectivity of FGFR3/FGFR2 less than 150 but greater than or equal to 100) |
| < 5 | ≤ 10 | C=C(F)C(=O)Nc1ccc(-c2[nH]c3c(C#N)cnc(N)c3c2-c2ccc(C(=O)NC3CC(F)(F)C3)c(OC)c2)cc1 [Compound 319, 4-(4-amino-7-cyano-2-(4-(2-fluoroacrylamido)phe-nyl)-1H-pyrrolo[3,2-c]pyridin-3-yl)-N-(3,3-difluorocyclobutyl)-2-methoxybenzamide] | A (Selectivity of FGFR1/FGFR2 less than 500 but greater than or equal to 300) | A+ (Selectivity of FGFR3/FGFR2 greater or equal to 150) |
| 5 to 10 | ≤ 10 | C=C(F)C(=O)Nc1ccc(-c2[nH]c3c(C#N)cnc(N)c3c2-c2ccc(C(=O)NC3(C)CC3)c(OC)c2)cc1 [Compound 321, 4-(4-amino-7-cyano-2-(4-(2-fluoroacrylamido)phe-ny1)-1H-pyrrolo[3,2-c]pyridin-3-yl)-2-methoxy-N-(1-methylcyclopropyl)benzamide] | C (Selectivity of FGFR1/FGFR2 less than 200 but greater than or equal to 100) | A+ (Selectivity of FGFR3/FGFR2 greater or equal to 150) |
| > 10 | ≤ 10 | C=CC(=O)Nc1ccc(-c2nn3ncnc(N)c3c2-c2ccc(NC(=O)C3CC3(F)F)c(OC)c2)cc1 (centres unmarked) [Compound 339, N-(4-(6-(4-acrylamidophenyl)-4-aminopyrazolo[5,1-f][1,2,4]triazin-5-yl)-2-methoxyphenyl)-2,2-difluorocyclopropane-1-carboxamide] | C (Selectivity of FGFR1/FGFR2 less than 200 but greater than or equal to 100) | B (Selectivity of FGFR3/FGFR2 less than 100 but greater than or equal to 25) |
| > 10 | ≤ 10 | C=CC(=O)Nc1ccc(-c2nn3ncnc(N)c3c2-c2ccc(NC(=O)C3CC(F)(F)C3)c(OC)c2)cc1 [Compound 340, N-(4-(6-(4-acrylamidophenyl)-4-aminopyrazolo[5,1-f][1,2,4]triazin-5-yl)-2-methoxyphenyl)-3,3-difluorocyclobutane-1-carboxamide] | B (Selectivity of FGFR1/FGFR2 less than 300 but greater than or equal to 200) | A (Selectivity of FGFR3/FGFR2 less than 150 but greater than or equal to 100) |
| < 5 | ≤ 10 | C=CC(=O)Nc1ccc(-c2c(-c3ccc(C(=O)NC4CC4)c(OC)c3)c3c(N)ncc(C#N)c3n2CC(F)(F)F)cc1 [Compound 342] | B (Selectivity of FGFR1/FGFR2 less than 300 but greater than or equal to 200) | A+ (Selectivity of FGFR3/FGFR2 greater or equal to 150) |
| < 5 | ≤ 10 | C=C(F)C(=O)Nc1ccc(-c2c(-c3ccc(Oc4nccc(C)n4)c(F)c3)c3c(N)ncc(C#N)c3n2C)cc1 [Compound 344, N-(4-(4-amino-7-cyano-3-(3-fluoro-4-((4-methylpyrimidin-2-yl)oxy)phenyl)-1-methyl-1H-pyrrolo[3,2-c]pyridin-2-yl)phenyl)-2-fluoroacrylamide] | A+ (Selectivity of FGFR1/FGFR2 greater or equal to 500) | A (Selectivity of FGFR3/FGFR2 less than 150 but greater than or equal to 100) |
